Data taken from patent publication US20230303712A1, “METHODS OF TREATING GLIOBLASTOMA” (Ramot at Tel-Aviv University Ltd., priority 2020, published 2023).
Entries after “also recorded” stand apart in the source; their conditions may differ.

What was measured:
human microglia = experiment: Flow cytometry of CD163 and CD206 expression by microglia; format: cell-based; settings: PD-GB4 CM with rSELP, or SELPi added to PD-GB4 CM
Procedure: (§1) Flow cytometry. For flow cytometry assays, cells were harvested using a cell scraper, and were then washed with PBS followed by additional washes with PBS supplemented with 1% BSA and 5 mM EDTA (FACS buffer). Tumor spheroids were recovered from Matrigel using Cell Recovery Solution (Corning) and washed with FACS buffer. To validate the purity of the microglia preparations, CD11b isolated cells or human microglia were incubated with TMEM119 and P2Y12-labeled antibodies for 1 h. For human TMEM119, primary antibody was unlabeled and cells were washed and incubated with secondary, Alexa 488 conjugated antibody. To assess P-Selectin and PSGL-1 expression, GB cells and microglia were seeded alone, co-cultured in a 2D petri dish, or grown as spheroids seeded in Matrigel. Cells were treated with control medium or CM for 48 h. They were then incubated with mouse anti-human P-Selectin antibody for 1 h on ice, and then were washed, and incubated with Alexa-488 labeled anti-mouse IgG binding protein for 1 h on ice. Alternatively, cells were incubated with rat anti-human PSGL antibody, and then were washed, and incubated with goat anti-rat, Alexa-488 labeled antibody for 1 h on ice. […] Fluorescence intensity was assessed using either an Attune flow cytometer (Life Technologies) or a Gallios™ flow cytometer (Beckman Coulter, USA) and the results were analyzed by Kaluza software (Beckman Coulter, USA).

[1] = tested on: bone marrow derived macrophages (BMDM); experiment: Flow cytometry of PSGL-1, CD206, CD38 on bone marrow derived macrophages; format: cell-based, murine
Procedure: Primary murine bone marrow-derived macrophages (BMDM) isolation. Bone marrow cells were freshly isolated from the tibias and the femurs of 8-12 weeks old C57BL/6 mice (Envigo CRS, Israel). Bone marrow cells were extracted using 25-gauge syringe and passed through a 70 µm nylon strainer (Corning, Israel). For macrophages differentiation cells were incubated with 50 ng/ml recombinant murine GM-CSF for one week. The medium was replaced 4 days post cells isolation. Cells were tested for CD11b and F4/80 expression using flow cytometry.
as §1

GL261 GB tumors = experiment: SELPi treatment in murine GL261 GB model; format: in vivo, C57BL/6 mice
Procedure: Tumor volume was evaluated by MRI.
SELPi treatments. KF 38789 (SELPi) is a commercially-available P-Selectin inhibitor manufactured by Tocris BioScience. […] This compound is commonly used for research of immune-related processes such as tumor metastases formation. For the experiment described above, SELPi (0.8 mg/ml) was dissolved in DMSO (0.01%), polyethyleneglycol (93.2 mg/ml), Tween-80 (14.8 mg/ml) and DDW. Mice were injected with 16 mg/kg IV, twice a week, three times a week or QOD as described above. As control (vehicle), mice were injected with DMSO (0.01%), polyethyleneglycol (93.2 mg/ml), Tween-80 (14.8 mg/ml), in DDW at equivalent volume.
MRI imaging. Tumor bearing mice were imaged at the Sackler Cellular & Molecular Imaging Center (SCMIC), Tel Aviv University. Mice were anesthetized by ketamine (150 mg/kg) and xylazine (12 mg/kg) injected IP. T1 with contrast agent (Magnetol, Gd-DTPA, Soreq M.R.C. Israel Radiopharmaceuticals) and T2 weighted images were taken by 4.7T MRI - MRS 4000™ (MR solutions).

E-Selectin = biological target: T1, E-Selectin (Homo sapiens, UniProt P16581); settings: cited from earlier work
T1 sequence (P16581 22-610): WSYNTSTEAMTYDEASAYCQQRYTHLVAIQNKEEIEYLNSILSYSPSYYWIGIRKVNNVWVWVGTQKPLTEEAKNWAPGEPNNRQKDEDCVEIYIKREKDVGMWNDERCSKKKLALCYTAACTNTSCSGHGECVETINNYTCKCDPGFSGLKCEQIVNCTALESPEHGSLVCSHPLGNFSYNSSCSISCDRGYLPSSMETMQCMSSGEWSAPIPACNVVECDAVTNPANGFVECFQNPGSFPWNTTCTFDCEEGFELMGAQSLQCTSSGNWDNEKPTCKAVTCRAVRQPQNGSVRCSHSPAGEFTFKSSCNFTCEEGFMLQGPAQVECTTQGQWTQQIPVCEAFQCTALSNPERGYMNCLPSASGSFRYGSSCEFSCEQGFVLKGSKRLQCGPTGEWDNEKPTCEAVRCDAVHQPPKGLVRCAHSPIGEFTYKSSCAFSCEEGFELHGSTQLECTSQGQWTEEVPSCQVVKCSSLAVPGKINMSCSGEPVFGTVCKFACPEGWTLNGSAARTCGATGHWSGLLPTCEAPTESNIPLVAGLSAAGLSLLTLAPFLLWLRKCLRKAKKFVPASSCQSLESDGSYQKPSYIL

[2] = rSELP, or SELPi added to rSELP containing medium

COc1ccc(C2CC(c3c(O)cc(C)oc3=O)=NCCS2)c(OC)c1 (stereo not shown) [SELPi, 3-[7-(2,4-Dimethoxyphenyl)-2,3,6,7-tetrahydro-1,4-thiazepin-5-yl]-4-hydroxy-6-methyl-2H-pyran-2-one]
CD206 expression (human microglia): reduced CD206 expression | PSGL-1 expression ([1]; rSELP and GB CM, or SELPi added to GB CM): reduced | CD38 expression [1, 2]: elevated | CD206 expression [1, 2]: reduced | tumor volume (MRI) (GL261 GB tumors; GL261, SELPi IV 16 mg/kg three times a week, 16 mg/kg): significant reduction in tumor volume; also recorded: reduced tumor growth | CD4+ and CD8+ T cells in tumors (GL261 GB tumors; GL261 tumors): increase | CD4+/FOXP3+ T cells in tumors (GL261 GB tumors; GL261 tumors): decrease | blood vessel density (CD31 immunostaining) (GL261 GB tumors; GL261 tumors): clear reduction | proliferation (Ki-67 immunostaining) (GL261 GB tumors; GL261 tumors): clear reduction | inhibiting effect on E-Selectin (E-Selectin): no inhibiting effects
